Test results taken from patent US20220062240A1, “METHODS OF TREATING CANCER USING A CLK INHIBITOR” (BioSplice Therapeutics, Inc., priority 2018, published 2022).

Legend:
[1] = tested on: nuclear speckles in SW480 cells; experiment: Nuclear speckle staining (phospho-SC35); assay type: cell-based, human; details: SW480, 6 hours, 0.3-10 μM
Description: […]. The cells were stained with a phospho-SC35 antibody (green) and a Hoechst 33342 nuclear stain (blue). Scale bar, 10 μm.
FIG. 9A is a set of representative immunofluorescence images (×100 magnification) of SW480 cells treated with indicated concentrations for 6 hours. The cells were stained with a phospho-SC35 antibody (green) and a Hoechst 33342 nuclear stain (blue). Scale bar, 10 μm.
[…]. After approximately 6 hr, cells were fixed and stained a phospho-SC35 antibody (Santa Cruz Biotechnology). Cells were then labelled with an Alexa-Fluor 488 secondary antibody (Thermo Fisher) containing DAPI (Thermo Fisher). Cells were imaged at 100× magnification.

[2] = tested on: Wnt responsive TOPflash reporter in SW480 colon cancer cells; experiment: TOPflash β-catenin/TCF-responsive reporter assay; assay type: cell-based, human; details: Homo sapiens
Description: Human colorectal cancer cell line SW480, stably expressing the Wnt responsive TOPflash promoter linked to luciferase gene (TOPflash) was used along with SW480 stably expressing a control EF1a-Luciferase reporter gene (GenTarget #LVP434) as a counterscreen. […] Cells were plated at ˜10,000 cells/well and incubated for 40 hours. Luminescence was detected using Bright-Glo (Promega Corp.).

SW480 cells [3] = experiment: Cell viability assay in SW480 cells (Compound 12, CC-671, Harmine); assay type: cell-based; details: Homo sapiens, SW480, 96 h, read-out: EC50 cell viability
From the text: The data is representative from three independent assays performed in quadruplicate.

[4] = tested on: SRSF6 and SRSF5 phosphorylation in SW480 cells; experiment: SR phosphorylation immunoblot; assay type: cell-based, human; details: SW480, 1 hour
Description: FIG. 6A is an immunoblot showing phosphorylated SRSF6 and SRSF5 in SW480 cells treated as indicated for 1 hour. Total SRSF5 and R-actin blots were used as loading controls. The blots are representative of two experiments.
First, it was determined that CLK1, CLK2, and CLK3 localized into the nucleus, while CLK4 was predominantly detected in the cytoplasm (FIG. 5). […]. Zhou et al., Chromosoma 122, 191-207, 2013).
(§1) For indicated experiments, cells were pelleted by centrifugation and washed with PBS and protein from the cell pellet was fractionated into cytoplasmic and nuclear fractions using a NE-PER™Nuclear and Cytoplasmic Extraction Reagents kit containing Halt™ protease and phosphatase inhibitors (Thermo Fisher). Protein concentrations of the samples were quantified using the Pierce Micro BCA protein assay kit (Thermo Fisher). […] Primary antibodies were incubated overnight at 4° C., with GAPDH, Lamin B1 or β-actin being used as loading controls (refer to Table 19 for primary antibodies and dilutions used).

SW480 cells [5] = experiment: Wnt pathway gene (qRT-PCR) and protein (immunoblot) expression; assay type: cell-based, human; details: SW480, 24 hours, compared to DMSO
Description: Fold-change relative to DMSO is shown (n=3 biological replicates per group, Mean±SD, **P<0.01; ***P<0.001, student's two-tailed t-test).
FIG. 6D is an immunoblot showing Wnt pathway-related protein expression in SW480 cells treated as indicated for 24 hours. The proteins were separated into nuclear and cytoplasmic fractions. GAPDH and Lamin B1 represent cytoplasmic and nuclear protein loading controls, respectively. The blots are representative of two experiments.
FIG. 6E is an immunoblot showing Wnt pathway-related protein expression in SW480 cells treated as indicated for 48 hours. The proteins were separated into nuclear and cytoplasmic fractions. GAPDH and Lamin B1 represent cytoplasmic and nuclear protein loading controls, respectively. The blots are representative of two experiments.
The fold-change relative to DMSO is shown (n=3 biological replicates per group, Mean±SD, *P<0.05; **P<0.01; ***P<0.001, student's two-tailed t-test).
FIG. 7C is an immunoblot showing protein expression of hits identified in FIG. 7A. SW480 cells were treated as indicated for 24 hours and proteins were separated into nuclear and cytoplasmic fractions. GAPDH and Lamin B1 represent the cytoplasmic and nuclear protein loading controls, respectively. The blots are representative of two experiments.
as §1
Total RNA was isolated using RNeasy Plus mini kit (Qiagen) or MagMAX Total RNA kit (Thermo Fisher) as per the manufacturers' protocol. cDNA was synthesized using the iScript cDNA Synthesis Kit (Bio-Rad), followed before performing qRT-PCR. Reactions were then run on a real-time PCR system (CFX384; Bio-Rad). Relative gene expression was determined by normalizing to GAPDH using the ΔΔCt method.

COc1ccc2c(c1)[nH]c1c(C)nccc12 [Harmine]
enlargement of nuclear speckles [1]: not observed | EC50 [2]: > 10 µM | EC50 (SW480 cells [3]): > 10 µM | SR phosphorylation (SRSF6, SRSF5) [4]: not active | gene expression of AXIN2, LEF1, MYC, TCF7, CTNNB1 and TCF7L2 (SW480 cells [5]): minimal effect
